Laboratory results reported in PubChem BioAssay (NCI).
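Tested at 5 concentrations; 48 h exposure; 96-well plates; endpoints linearly interpolated, else capped at highest concentration. TGI: total growth inhibition.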

Assays:
Assay in all cases: NCI tumour cell line growth inhibition, 48 h
SNB-78 CNS = tested on: SNB-78 CNS
XF 498 CNS = tested on: XF 498 CNS
786-0 renal = tested on: 786-0 renal
KM12 colon = tested on: KM12 colon
CCRF-CEM leukemia = tested on: CCRF-CEM leukemia
K-562 leukemia = tested on: K-562 leukemia
UACC-62 melanoma = tested on: UACC-62 melanoma
OVCAR-5 ovarian = tested on: OVCAR-5 ovarian
ACHN renal = tested on: ACHN renal
MOLT-4 leukemia = tested on: MOLT-4 leukemia
RXF-631 renal = tested on: RXF-631 renal
SW-620 colon = tested on: SW-620 colon
NCI-H522 lung = tested on: NCI-H522 lung
SR leukemia = tested on: SR leukemia
DMS 114 small cell lung = tested on: DMS 114 small cell lung
HOP-18 NSCLC = tested on: HOP-18 NSCLC
EKVX NSCLC = tested on: EKVX NSCLC
KM20L2 colon = tested on: KM20L2 colon
SNB-75 CNS = tested on: SNB-75 CNS
M19-MEL melanoma = tested on: M19-MEL melanoma
SK-OV-3 ovarian = tested on: SK-OV-3 ovarian
DMS 273 small cell lung = tested on: DMS 273 small cell lung
LXFL 529 NSCLC = tested on: LXFL 529 NSCLC
UO-31 renal = tested on: UO-31 renal
SNB-19 CNS = tested on: SNB-19 CNS
UACC-257 melanoma = tested on: UACC-257 melanoma
NCI-H23 lung = tested on: NCI-H23 lung
M14 melanoma = tested on: M14 melanoma
OVCAR-3 ovarian = tested on: OVCAR-3 ovarian
SN12C renal = tested on: SN12C renal
SK-MEL-2 melanoma = tested on: SK-MEL-2 melanoma
A549 NSCLC = tested on: A549 NSCLC
DLD-1 colon = tested on: DLD-1 colon
HT29 colon = tested on: HT29 colon
U251 CNS = tested on: U251 CNS
A498 renal = tested on: A498 renal
MALME-3M melanoma = tested on: MALME-3M melanoma
SK-MEL-28 melanoma = tested on: SK-MEL-28 melanoma
HOP-92 NSCLC = tested on: HOP-92 NSCLC
COLO 205 colon = tested on: COLO 205 colon
RXF 393 renal = tested on: RXF 393 renal
HCC-2998 colon = tested on: HCC-2998 colon
SK-MEL-5 melanoma = tested on: SK-MEL-5 melanoma
HL-60(TB) leukemia = tested on: HL-60(TB) leukemia
NCI-H460 lung = tested on: NCI-H460 lung
SF-539 CNS = tested on: SF-539 CNS
OVCAR-8 ovarian = tested on: OVCAR-8 ovarian
TK-10 renal = tested on: TK-10 renal
HCT-116 colon = tested on: HCT-116 colon
LOX IMVI melanoma = tested on: LOX IMVI melanoma
IGROV1 ovarian = tested on: IGROV1 ovarian
SF-295 CNS = tested on: SF-295 CNS
RPMI-8226 leukemia = tested on: RPMI-8226 leukemia
HCT-15 colon = tested on: HCT-15 colon
SF-268 CNS = tested on: SF-268 CNS
HOP-62 NSCLC = tested on: HOP-62 NSCLC
CAKI-1 renal = tested on: CAKI-1 renal
OVCAR-4 ovarian = tested on: OVCAR-4 ovarian

COc1ccc(NCC#N)cc1
TGI (SNB-78 CNS): > 100 µM | TGI (XF 498 CNS): > 100 µM | TGI (786-0 renal): 75.8 µM | TGI (KM12 colon): > 100 µM | TGI (CCRF-CEM leukemia): > 100 µM | TGI (K-562 leukemia): > 100 µM | TGI (UACC-62 melanoma): > 100 µM | TGI (OVCAR-5 ovarian): > 100 µM | TGI (ACHN renal): > 100 µM | TGI (MOLT-4 leukemia): > 100 µM | TGI (RXF-631 renal): > 100 µM | TGI (SW-620 colon): > 100 µM | TGI (NCI-H522 lung): > 100 µM | TGI (SR leukemia): > 100 µM | TGI (DMS 114 small cell lung): > 100 µM | TGI (HOP-18 NSCLC): > 100 µM | TGI (EKVX NSCLC): > 100 µM | TGI (KM20L2 colon): > 100 µM | TGI (SNB-75 CNS): > 100 µM | TGI (M19-MEL melanoma): > 100 µM | TGI (SK-OV-3 ovarian): > 100 µM | TGI (DMS 273 small cell lung): > 100 µM | TGI (LXFL 529 NSCLC): > 100 µM | TGI (UO-31 renal): > 100 µM | TGI (SNB-19 CNS): > 100 µM | TGI (UACC-257 melanoma): > 100 µM | TGI (NCI-H23 lung): > 100 µM | TGI (M14 melanoma): > 100 µM | TGI (OVCAR-3 ovarian): > 100 µM | TGI (SN12C renal): > 100 µM | TGI (SK-MEL-2 melanoma): > 100 µM | TGI (A549 NSCLC): > 100 µM | TGI (DLD-1 colon): > 100 µM | TGI (HT29 colon): > 100 µM | TGI (U251 CNS): > 100 µM | TGI (A498 renal): > 100 µM | TGI (MALME-3M melanoma): > 100 µM | TGI (SK-MEL-28 melanoma): > 100 µM | TGI (HOP-92 NSCLC): > 100 µM | TGI (COLO 205 colon): > 100 µM | TGI (RXF 393 renal): > 100 µM | TGI (HCC-2998 colon): > 100 µM | TGI (SK-MEL-5 melanoma): > 100 µM | TGI (HL-60(TB) leukemia): > 100 µM | TGI (NCI-H460 lung): > 100 µM | TGI (SF-539 CNS): > 100 µM | TGI (OVCAR-8 ovarian): > 100 µM | TGI (TK-10 renal): > 100 µM | TGI (HCT-116 colon): > 100 µM | TGI (LOX IMVI melanoma): > 100 µM | TGI (IGROV1 ovarian): > 100 µM | TGI (SF-295 CNS): > 100 µM | TGI (RPMI-8226 leukemia): > 100 µM | TGI (HCT-15 colon): > 100 µM | TGI (SF-268 CNS): > 100 µM

O=C(O)C1(C(=O)O)CC1
TGI (SNB-78 CNS): > 100 µM | TGI (XF 498 CNS): > 100 µM | TGI (786-0 renal): > 100 µM | TGI (KM12 colon): > 100 µM | TGI (CCRF-CEM leukemia): > 100 µM | TGI (K-562 leukemia): > 100 µM | TGI (UACC-62 melanoma): > 100 µM | TGI (ACHN renal): > 100 µM | TGI (MOLT-4 leukemia): > 100 µM | TGI (RXF-631 renal): > 100 µM | TGI (SW-620 colon): > 100 µM | TGI (NCI-H522 lung): > 100 µM | TGI (DMS 114 small cell lung): > 100 µM | TGI (HOP-62 NSCLC): > 100 µM | TGI (HOP-18 NSCLC): > 100 µM | TGI (EKVX NSCLC): > 100 µM | TGI (KM20L2 colon): > 100 µM | TGI (SNB-75 CNS): > 100 µM | TGI (M19-MEL melanoma): > 100 µM | TGI (SK-OV-3 ovarian): > 100 µM | TGI (DMS 273 small cell lung): > 100 µM | TGI (LXFL 529 NSCLC): > 100 µM | TGI (UO-31 renal): > 100 µM | TGI (SNB-19 CNS): > 100 µM | TGI (UACC-257 melanoma): > 100 µM | TGI (NCI-H23 lung): > 100 µM | TGI (M14 melanoma): > 100 µM | TGI (OVCAR-3 ovarian): > 100 µM | TGI (CAKI-1 renal): > 100 µM | TGI (SN12C renal): > 100 µM | TGI (SK-MEL-2 melanoma): > 100 µM | TGI (A549 NSCLC): > 100 µM | TGI (DLD-1 colon): > 100 µM | TGI (U251 CNS): > 100 µM | TGI (A498 renal): > 100 µM | TGI (MALME-3M melanoma): > 100 µM | TGI (SK-MEL-28 melanoma): > 100 µM | TGI (COLO 205 colon): > 100 µM | TGI (RXF 393 renal): > 100 µM | TGI (HCC-2998 colon): > 100 µM | TGI (SK-MEL-5 melanoma): > 100 µM | TGI (OVCAR-4 ovarian): > 100 µM | TGI (HL-60(TB) leukemia): > 100 µM | TGI (NCI-H460 lung): > 100 µM | TGI (SF-539 CNS): > 100 µM | TGI (OVCAR-8 ovarian): > 100 µM | TGI (TK-10 renal): > 100 µM | TGI (HCT-116 colon): > 100 µM | TGI (IGROV1 ovarian): > 100 µM | TGI (SF-295 CNS): > 100 µM | TGI (RPMI-8226 leukemia): > 100 µM | TGI (HCT-15 colon): > 100 µM | TGI (SF-268 CNS): > 100 µM
